Measurements as given in ChEMBL document CHEMBL5518180, “Design, synthesis, and biological evaluation of harmine derivatives as topoisomerase I inhibitors for cancer treatment” (Eur J Med Chem, 2024).
Calls of active or inactive are those of the source. No cut-off for these calls is given here.

Columns and labels:
[1] = Toxicity in BALB/c mouse transplanted with […] cells assessed as lung damage at 5 to 20 mg/kg, ip administered for 14 days by hematoxylin and eosin staining based analysis; assay type: organism-based; conditions: in vivo, 336 h, dose 5-20 mg/kg, time 14 day
[2] = test system: 4T1; assay: Antitumor activity against mouse 4T1 cells transplanted in BALB/c mouse assessed as tumor growth inhibition rate at 5 mg/kg, ip administered for 14 days relative to control; assay type: functional; conditions: 4T1, 336 h, time 14 day, read-out: TGI
[3] = test system: MCF7; assay: Antiproliferative activity against human MCF7 cells assessed as inhibition of cell growth incubated for 48 hrs by MTT assay; assay type: functional, cell-based; conditions: MCF7, 48 h
[4] = test system: A549; assay: Antiproliferative activity against human A549 cells assessed as inhibition of cell growth incubated for 48 hrs by MTT assay; assay type: functional, cell-based; conditions: A549, 48 h
[5] = Toxicity in BALB/c mouse transplanted with […] cells assessed as heart damage at 5 to 20 mg/kg, ip administered for 14 days by hematoxylin and eosin staining based analysis; assay type: organism-based; conditions: in vivo, 336 h, dose 5-20 mg/kg, time 14 day
[6] = test system: MCF7; assay: Induction of apoptosis in human MCF7 cells assessed as viable cells at 0.5 uM incubated for 24 hrs by Annexin V-FITC/Propidium Iodide staining based flow cytometry analysis (reference value: 91.8 %); assay type: functional; conditions: read-out: Activity
[7] = test system: MCF7; assay: Induction of apoptosis in human MCF7 cells assessed as late apoptotic cells at 2 uM incubated for 24 hrs by Annexin V-FITC/Propidium Iodide staining based flow cytometry analysis (reference value: 5.58 %); assay type: functional
[8] = test system: MCF7; assay: Inhibition of colony formation in human MCF7 cells incubated for 2 weeks by crystal violet staining based analysis; assay type: functional, cell-based; conditions: dose 0.075-1.2 µM
[9] = Toxicity in BALB/c mouse transplanted with […] cells assessed as change in lactate dehydrogenase level at 5 to 20 mg/kg, ip administered for 14 days by biochemical analysis; assay type: organism-based; conditions: in vivo, 336 h, dose 5-20 mg/kg, time 14 day
[10] = Toxicity in BALB/c mouse transplanted with […] cells assessed as kidney damage at 5 to 20 mg/kg, ip administered for 14 days by hematoxylin and eosin staining based analysis; assay type: organism-based; conditions: in vivo, 336 h, dose 5-20 mg/kg, time 14 day
[11] = test system: MCF7; assay: Antimigratory activity against human MCF7 cells assessed as wound healing rate at 0.5 uM incubated for 24 hrs by inverted fluorescence microscopic analysis (reference value: 42.5 %); assay type: functional
[12] = test system: HT-29; assay: Antiproliferative activity against human HT-29 cells assessed as inhibition of cell growth incubated for 48 hrs by MTT assay; assay type: functional, cell-based; conditions: HT-29, 48 h
[13] = test system: MCF7; assay: Antimigratory activity against human MCF7 cells assessed as wound healing rate at 0.125 uM incubated for 24 hrs by inverted fluorescence microscopic analysis (reference value: 42.5 %); assay type: functional
[14] = test system: MCF7; assay: Induction of apoptosis in human MCF7 cells assessed as late apoptotic cells at 0.1 uM incubated for 24 hrs by Annexin V-FITC/Propidium Iodide staining based flow cytometry analysis (reference value: 5.58 %); assay type: functional
[15] = Toxicity in BALB/c mouse transplanted with […] cells assessed as change in creatinine level at 5 to 20 mg/kg, ip administered for 14 days by biochemical analysis; assay type: organism-based; conditions: in vivo, 336 h, dose 5-20 mg/kg, time 14 day
[16] = test system: MCF7; assay: Induction of apoptosis in human MCF7 cells assessed as early apoptotic cells at 0.5 uM incubated for 24 hrs by Annexin V-FITC/Propidium Iodide staining based flow cytometry analysis (reference value: 2.54 %); assay type: functional
[17] = test system: MCF7; assay: Induction of apoptosis in human MCF7 cells assessed as viable cells at 2 uM incubated for 24 hrs by Annexin V-FITC/Propidium Iodide staining based flow cytometry analysis (reference value: 91.8 %); assay type: functional; conditions: read-out: Activity
[18] = test system: MCF7; assay: Induction of apoptosis in human MCF7 cells assessed as necrotic cells at 2 uM incubated for 24 hrs by Annexin V-FITC/Propidium Iodide staining based flow cytometry analysis (reference value: 0.082 %); assay type: functional
[19] = Cytotoxicity against human L02 cells assessed as inhibition of cell growth incubated for 48 hrs by MTT assay; assay type: toxicity, cell-based
[20] = test system: MCF7; assay: Antimigratory activity against human MCF7 cells assessed as inhibition of recovery of cells from scratch wounds incubated for 24 hrs by inverted fluorescence microscopic analysis; assay type: functional, cell-based; conditions: dose 0.125-0.5 µM
[21] = test system: MCF7; assay: Induction of apoptosis in human MCF7 cells assessed as necrotic cells at 0.5 uM incubated for 24 hrs by Annexin V-FITC/Propidium Iodide staining based flow cytometry analysis (reference value: 0.082 %); assay type: functional
[22] = test system: MCF7; assay: Induction of DNA damage in human MCF7 cells at 5 to 10 uM pre-incubated for 24 hrs by Comet assay; assay type: functional, cell-based; conditions: dose 5-10 µM
[23] = test system: MCF7; assay: Induction of apoptosis in human MCF7 cells assessed as necrotic cells at 0.1 uM incubated for 24 hrs by Annexin V-FITC/Propidium Iodide staining based flow cytometry analysis (reference value: 0.082 %); assay type: functional
[24] = test system: MCF7; assay: Induction of apoptosis in human MCF7 cells assessed as early apoptotic cells at 2 uM incubated for 24 hrs by Annexin V-FITC/Propidium Iodide staining based flow cytometry analysis (reference value: 2.54 %); assay type: functional
[25] = test system: MCF7; assay: Induction of apoptosis in human MCF7 cells assessed as increase in cleaved-PARP protein expression incubated for 24 hrs by Western blotting analysis; assay type: functional, cell-based; conditions: dose 0.1-2 µM

What does the source list for `O=C(/C=C/c1ccc(Cl)c([N+](=O)[O-])c1)c1nccc2c1[nH]c1ccccc12`?
Activity [1]: Non-Toxic; inhibition in vivo at 5 mg/kg [2]: 21.7%; IC50 [3]: 340 nM; IC50 [4]: 2020 nM; Activity [5]: Non-Toxic; viability at 0.5 µM [6]: 71%; Activity [7]: 30.8%; inhibition [8]: Dose-Dependent Effect; Activity [9]: Non-Toxic; Activity [10]: Non-Toxic; Activity [11]: 1.4%; IC50 [12]: 570 nM; Activity [13]: 15.3%; Activity [14]: 7.06%; Activity [15]: Non-Toxic; Activity [16]: 20.1%; viability at 2 µM [17]: 60.6%; Activity [18]: 0.93%; IC50 at 48 h [19]: 9610 nM; Activity [20]: Dose-Dependent Effect; Activity [21]: 0.27%; Activity [22]: Active; Activity [23]: 0.12%; Activity [24]: 7.59%; Activity [25]: Dose-Dependent Effect
